# The source made the active and inactive calls. The rule behind the calls is not given here.
# Assays:
# [1] = system: Human immunodeficiency virus 1; test: Antiviral activity against HIV1 3B infected in human H9 cells assessed as inhibition of viral replication at 18 uM treated during viral infection step by p24 antigen capture assay; assay type: functional, organism-based
# [2] = system: Human immunodeficiency virus 1; test: Antiviral activity against HIV1 3B infected in human H9 cells assessed as inhibition of viral replication at 18 uM treated after viral infection by p24 antigen capture assay; assay type: functional, organism-based
# [3] = system: Human immunodeficiency virus 1; test: Antiviral activity against HIV1 3B infected in human H9 cells assessed as inhibition of viral replication at 21 uM treated after viral infection by p24 antigen capture assay; assay type: functional, organism-based
# [4] = system: Human immunodeficiency virus 1; test: Antiviral activity against HIV1 3B infected in human H9 cells assessed as inhibition of viral replication at 18 uM pretreated before viral infection by p24 antigen capture assay; assay type: functional, organism-based
# [5] = system: Human immunodeficiency virus 1; test: Antiviral activity against HIV1 3B infected in human H9 cells assessed as inhibition of viral replication after 3 days by p24 antigen capture assay; assay type: functional; design: concentration or dose not given beside the values
# [6] = system: Human immunodeficiency virus 1; test: Antiviral activity against HIV1 3B infected in human H9 cells assessed as inhibition of viral replication at 21 uM treated during viral infection step by p24 antigen capture assay; assay type: functional, organism-based
# [7] = system: Human immunodeficiency virus 1; test: Antiviral activity against HIV1 3B infected in human H9 cells assessed as inhibition of viral replication at 21 uM pretreated before viral infection by p24 antigen capture assay; assay type: functional, organism-based
# [8] = target: Human immunodeficiency virus type 1 reverse transcriptase (Human immunodeficiency virus 1) (UniProt Q72547); test: Inhibition of HIV reverse transcriptase
# [9] = system: Human immunodeficiency virus 1; test: Antiviral activity against HIV1 3B infected in human H9 cells assessed as inhibition of viral replication at 10 uM treated during viral infection step by p24 antigen capture assay; assay type: functional, organism-based
# [10] = system: Human immunodeficiency virus 1; test: Antiviral activity against HIV1 3B infected in human H9 cells assessed as inhibition of viral replication at 10 uM pretreated before viral infection by p24 antigen capture assay; assay type: functional, organism-based
# [11] = system: Human immunodeficiency virus 1; test: Antiviral activity against HIV1 3B infected in human H9 cells assessed as inhibition of viral replication at 9.2 uM treated during viral infection step by p24 antigen capture assay; assay type: functional, organism-based
# [12] = target: Human immunodeficiency virus type 1 reverse transcriptase (Human immunodeficiency virus 1) (UniProt Q72547); test: Inhibition of polymerase activity of HIV reverse transcriptase assessed as residual enzyme activity at 46 uM in presence of 75 ug/ml activated dNA and 25 uM dTTP
# [13] = system: Human immunodeficiency virus 1; test: Antiviral activity against HIV1 3B infected in human H9 cells assessed as inhibition of viral replication at 9.2 uM pretreated before viral infection by p24 antigen capture assay; assay type: functional, organism-based
# [14] = target: Human immunodeficiency virus type 1 reverse transcriptase (Human immunodeficiency virus 1) (UniProt Q72547); test: Inhibition of polymerase activity of HIV reverse transcriptase assessed as residual enzyme activity at 46 uM in presence of 75 ug/ml activated dNA and 5 uM dTTP
# [15] = target: Human immunodeficiency virus type 1 reverse transcriptase (Human immunodeficiency virus 1) (UniProt Q72547); test: Inhibition of polymerase activity of HIV reverse transcriptase assessed as residual enzyme activity at 46 uM in presence of 375 ug/ml activated dNA and 5 uM dTTP
# [16] = system: Human immunodeficiency virus 1; test: Antiviral activity against HIV1 3B infected in human H9 cells assessed as inhibition of viral replication at 13 uM treated during viral infection step by p24 antigen capture assay; assay type: functional, organism-based
# [17] = target: Human immunodeficiency virus type 1 reverse transcriptase (Human immunodeficiency virus 1) (UniProt Q72547); test: Inhibition of HIV reverse transcriptase at 12.5 uM; settings: TDE = time-dependent effect
# [18] = Growth inhibition of human H9 cells at 30 uM; assay type: cell-based; settings: read-out: GI
# [19] = target: Human immunodeficiency virus type 1 reverse transcriptase (Human immunodeficiency virus 1) (UniProt Q72547); test: Inhibition of polymerase activity of HIV reverse transcriptase assessed as residual enzyme activity at 64 uM in presence of 75 ug/ml activated dNA and 5 uM dTTP
# [20] = system: Human immunodeficiency virus 1; test: Antiviral activity against HIV1 3B infected in human H9 cells assessed as inhibition of viral replication at 13 uM pretreated before viral infection by p24 antigen capture assay; assay type: functional, organism-based
# [21] = target: Human immunodeficiency virus type 1 reverse transcriptase (Human immunodeficiency virus 1) (UniProt Q72547); test: Inhibition of polymerase activity of HIV reverse transcriptase assessed as residual enzyme activity at 64 uM in presence of 75 ug/ml activated dNA and 25 uM dTTP
# [22] = target: Human immunodeficiency virus type 1 reverse transcriptase (Human immunodeficiency virus 1) (UniProt Q72547); test: Inhibition of polymerase activity of HIV reverse transcriptase assessed as residual enzyme activity at 64 uM in presence of 375 ug/ml activated dNA and 5 uM dTTP
ID50 [8],Structure (SMILES),Activity [2],Activity [3],inhibition (INH) [5],other results
–,O=C(O[C@@H]1[C@H](O)C[C@@](OC(=O)c2cc(O)c(O)c(O)c2)(C(=O)O)C[C@H]1OC(=O)c1cc(O)c(O)c(O)c1)c1cc(O)c(O)c(O)c1,Active,Active,>50%,Activity [1]: Active; Activity [4]: Active
–,O=C(O)C1=C[C@@H](OC(=O)c2cc(O)c(O)c(O)c2)[C@@H](OC(=O)c2cc(O)c(O)c(O)c2)[C@H](OC(=O)c2cc(O)c(O)c(O)c2)C1,–,–,>50%,–
–,O=C(O)C1=C[C@@H](OC(=O)c2cc(O)c(O)c(O)c2)[C@@H](O)[C@H](OC(=O)c2cc(O)c(O)c(O)c2)C1,Active,Active,>50%,Activity [6]: Active; Activity [7]: Active
20 µM,O=C(O[C@@H]1O[C@@H]2COC(=O)c3cc(O)c(O)c(O)c3-c3c(cc(O)c(O)c3O)C(=O)O[C@H]2[C@@H]2OC(=O)c3cc(O)c(O)c(O)c3-c3c(cc(O)c(O)c3O)C(=O)O[C@@H]12)c1cc(O)c(O)c(Oc2c(O)c(O)c(O)c3c2C(=O)O[C@H]2[C@@H]4OC(=O)c5cc(O)c(O)c(O)c5-c5c(cc(O)c(O)c5O)C(=O)O[C@H]4[C@@H](OC(=O)c4cc(O)c(O)c(Oc5c(O)c(O)c(O)c6c5C(=O)O[C@H]5[C@@H]7OC(=O)c8cc(O)c(O)c(O)c8-c8c(cc(O)c(O)c8O)C(=O)O[C@H]7[C@H](OC(=O)c7cc(O)c(O)c(Oc8c(O)c(O)c(O)c9c8C(=O)O[C@H]8[C@@H]%10OC(=O)c%11cc(O)c(O)c(O)c%11-c%11c(cc(O)c(O)c%11O)C(=O)O[C@H]%10[C@@H](OC(=O)c%10cc(O)c(O)c(O)c%10)O[C@@H]8COC(=O)c8cc(O)c(O)c(O)c8-9)c7)O[C@@H]5COC(=O)c5cc(O)c(O)c(O)c5-6)c4)O[C@@H]2COC(=O)c2cc(O)c(O)c(O)c2-3)c1,–,–,–,–
–,O=C(O)C[C@@H]1C(=O)O[C@H]2[C@@H]3OC(=O)c4cc(O)c(O)c(O)c4-c4c(cc(O)c(O)c4O)C(=O)OC[C@H]2O[C@@H](OC(=O)c2cc(O)c(O)c(O)c2)[C@@H]3OC(=O)c2cc(O)c(O)c3c2[C@H]1[C@H](O)C(=O)O3 [CHEBULAGIC ACID],Active,Active,>50%,Activity [9]: Active; Activity [10]: inactive
–,O=C(O)C[C@H]1C(=O)O[C@H]2[C@H](OC(=O)c3cc(O)c(O)c(O)c3)[C@@H](OC(=O)c3cc(O)c(O)c4c3[C@H]1[C@H](O)C(=O)O4)[C@H](OC(=O)c1cc(O)c(O)c(O)c1)O[C@@H]2COC(=O)c1cc(O)c(O)c(O)c1 [CHEBULINIC ACID],Active,Active,>50%,Activity [9]: Active; Activity [10]: Active
5 µM,O=C1O[C@H]([C@@H]2OC(=O)c3cc(O)c(O)c(O)c3-c3c(O)c(O)c4oc(=O)c5c(c(O)c(O)c6oc(=O)c3c4c65)-c3c(cc(O)c(O)c3O)C(=O)OC[C@H]2O)[C@@H]2OC(=O)c3c(c(O)c(O)c(O)c3[C@H]2O)-c2c1cc(O)c(O)c2O [PUNICACORTEIN C],Active,Active,>50%,Activity [11]: Active; Activity [12]: 37.6%; Activity [13]: Active; Activity [14]: 21.5%; Activity [15]: 46.2%
–,O=C1O[C@@H]2[C@@H](OC(=O)c3cc(O)c(O)c(O)c3-c3c1cc(O)c(O)c3O)[C@H](O)O[C@@H]1COC(=O)c3cc(O)c(O)c(O)c3-c3c(O)c(O)c4oc(=O)c5c(c(O)c(O)c6oc(=O)c3c4c65)-c3c(cc(O)c(O)c3O)C(=O)O[C@@H]21 [PUNICALAGIN],Active,Active,>50%,Activity [11]: Active; Activity [13]: Active
8 µM,O=C1OC[C@H]2O[C@@H](O)[C@H](O)[C@@H](O)[C@@H]2OC(=O)c2cc(O)c(O)c(O)c2-c2c(O)c(O)c3oc(=O)c4c(c(O)c(O)c5oc(=O)c2c3c54)-c2c1cc(O)c(O)c2O [PUNICALIN],Active,Active,>50%,Activity [8]: Dose-dependent effect; Activity [16]: Active; Activity [17]: tde; inhibition at 30 µM [18]: 15%; Activity [19]: 11.4%; Activity [20]: inactive; Activity [21]: 34.4%; Activity [22]: 45.3%

# Source: ChEMBL document CHEMBL1151151, “Anti-AIDS agents, 2: Inhibitory effects of tannins on HIV reverse transcriptase and HIV replication in H9 lymphocyte cells” (J Nat Prod, 1990)
